Tested on: primary rat oligodendrocyte cultures
Test: LIF protection of oligodendrocytes from oxygen glucose deprivation (extracellular LDH)
Type: cell-based
Conditions: 24 hours OGD
Experimental: OL cell death in culture was determined using the LDH assay (Takara Bio, Inc., Madison, Wis.), since cell death is associated with LDH release through the plasma membrane. LDH is present in a large number of tissues, like the heart, liver, kidney, skeletal muscle, brain, blood cells, and lungs. Tissue breakdown releases LDH, thereby elevating circulating LDH and indicating tissue damage. Briefly, 100 μl of tissue culture media from each experimental group was added to a 96-well plate and 100 μl of LDH reagent was added to each well. Plates were incubated for 30 min at 25° C. and absorbances were read on a microplate reader at a 548 nm wavelength. The media from HUCB cell only cultures served as a control for HUCB cell death. The absorbance of HUCB cell only media, as well as the absorbance of media only, was subtracted from the total absorbance of the OL wells to eliminate background LDH activity.
An oxygen deprivation model was used to test the effect of LIF on primary rat oligodendrocyte cultures. Cells were grown in neurobasal medium containing B27 and […] glutamine prior to OGD. To simulate ischemic conditions, the neurobasal medium was replaced with DMEM containing no glucose (OGD). The cells were then exposed to 1% O2, 5% CO2 and 94% N2 for 24 hours. No LIF (OGD) or LIF was added to the cells, at the concentrations indicated. […]

leukemia inhibitory factor [LIF]
extracellular LDH levels compared to untreated (OGD) (LIF 100 pg): about 47.6%
extracellular LDH compared to untreated cells (LIF 50 ng): approximately 2.7%

From US9795652B2, “Use of endogenous antioxidant proteins in the treatment of stroke” (University of South Florida, priority 2010, dated 2017)
